Results: patent US20090068143A1, “ORALLY EFFECTIVE C[…]” (priority 2005, published 2009)
In brackets after ≈: the same amount, converted by molar mass. Read-outs that look alike come from different tables or passages of the source.

Legend:
CB1 = test: Real-time RT-PCR gene expression in CNS of MOG induced EAE: CB1; assay type: in vivo, mouse; conditions: 40 mg/kg p.o., day 31; over naive animals, normalized to cyclophilin
Experimental: (§1) Total RNA is prepared using SV total RNA isolation system (Promega). The brains and spinal cords, which were removed on day 31 from five animals treated with vehicle (i.e. untreated) or 40 mg/kg p.o. of compound 18F (i.e. treated) in the MOG-induced EAE study, were homogenized in lysis buffer. The lysates were transferred to an RNA isolation column, treated with DNAse, washed and eluted according to kit instructions. RNA concentrations were determined using GeneQuant II (Pharmacia-Amersham). Complementary DNA (cDNA) was synthesized from total RNA using […] II reverse transcriptase (Life Technologies). […] Quantitative real-time RT-PCR included 1 μl of the cDNA, 300 nM of the appropriate forward and reverse primers (according to the gene monitored) and 7.5 μl of the reaction mix containing buffer, nucleotides, Taq polymerase and SYBER green (SYBER Green master mix, Applied Biosystems), in a total reaction volume of 15 μl. […] During each annealing step, the amount of the amplified product was measured by the fluorescence of the double strand DNA binding dye, SYBER Green. The cycle of threshold (CT), representing the PCR cycle at which an increase in fluorescence above a baseline signal can be first detected, was determined for each product. […] Results were expressed as fold increase of gene expression in treated or untreated animals above the naive animals. […]

400 Gene Array = test: Gene array analysis of spinal cords, MOG induced EAE; assay type: in vivo, mouse; conditions: out of the 400 genes tested
Experimental: In an additional study, the gene expression profiling was performed using a 400 Gene Array series kit of SuperArray Bioscience Corporation according to manufacturer protocol and RNA extracted from spinal cords of treated or untreated animals, as above described. The scanned data were converted to mRNA expression levels and analyzed using two softwares, ScanAlayze and GEArray Analyzer. […] The genes so identified will be further analyzed by real time RT-PCR at other time points during disease progression. It is interesting to note that the genes whose expression is altered in MOG induced EAE animals following treatment with compounds of the invention broadly speaking encode for proteins involved in the immune system, such as STAT proteins which are involved in signal transduction of several cytokines and growth factors, JAK kinases, β2-microglobulin, TNF-receptor superfamily, calmodulins, and cyclin-dependent kinases.

[1] = Actual solubility in aqueous buffers / cosolvent (HPLC, spectrophotometer); assay type: physicochemical; conditions: for solubility: thermodynamic from solid
Experimental: The actual solubility of certain compounds of the invention was assessed in aqueous buffers and final concentration of compounds was determined using HPLC and spectrophotometer methodologies. […] Therefore, compounds that were designed following the same rational yielded unexpectedly divergent outcome, for instance in connection with solubility in aqueous solutions.
It should be noted that following lyophilization compound 18F could be dissolved in 80 mM phosphate buffer at pH 6.9 even more efficiently at concentrations up to 60 mg/ml, about two order of magnitudes higher than expected.
Approximately 11 g of compound 18F were lyophilized in one lyophilization cycle. A cosolvent mixture comprising 38.6% w/v of compound 18F was divided into several dishes to fit the lyophilization chamber. As a result of lyophilization, a dry product with improved physical properties such as flowability and less stickiness was obtained.

visceral pain = test: Visceral pain, acetic acid induced writhing responses; assay type: in vivo, ICR mice; conditions: for number of writhing responses: alone or combined with 0.5 mg/kg CPZ; for reduction of writhing responses as compared to vehicle treated animals: second study
Experimental: For the i.v. part of the study, compounds were dissolved in CREMOPHOR®:Ethanol and diluted 1:20 in saline prior to injection, fifteen minutes before pain induction. When compounds were delivered per os, they were dissolved in phosphate buffer or in CREMOPHOR®:Ethanol as previously described and administered 1 hour before pain induction. Each treatment group, except for controls comprising at least 30 animals, was composed of at least 6 animals. Fifteen or sixty minutes later, depending on the route selected for drug administration, the mice were injected i.p. with 10 ml/kg of 0.6% acetic acid and the number of visceral pain related behaviors (writhing, stretching, contractions of the abdomen accompanied by an elongation of the body and extension of the hind limbs) is counted over a period of 5 minutes, starting 5 minutes after the acetic acid administration. These visceral pain related behaviors are globally defined as writhing responses (WR). The results are expressed as mean number of writhing responses±SEM. Data were analyzed using analysis of variance (ANOVA) followed by post-hoc Fisher test. A value of p<0.05 was considered to be statistically significant and is indicated on the figure by an asterisk over the relevant treatment group.
The following results were obtained at 2 mg/kg i.v. of test compounds or, in the case of the study performed with cannabinoid receptor antagonists, 1 mg/kg test compound or antagonist alone and 1 mg/kg test compound+1 mg/kg antagonist. In a separate study, it was shown that analgesic activity of compounds of the invention was dose related.

F4/80 = test: Real-time RT-PCR gene expression in CNS of MOG induced EAE: F4/80; assay type: in vivo, mouse; conditions: 40 mg/kg p.o., day 31; over naive animals
Experimental: as §1

## CCCCCCC(C)(C)c1cc(O)c([C@H]2CC(=O)C3CC2C3(C)C)c(OC(=O)/C=C/C(=O)O)c1 (single isomer, unassigned; (-)) [Compound 18F, (−)-4-{4-[1,1-Dimethylheptyl]-2-fumarate-6-hydroxy-phenyl}-6,6-dimethyl-bicyclo[3.1.1]heptan-2-one]
CB1
  Fold gene expression CB1, Brain, Treated: 1 fold
  Fold gene expression CB1, Spinal Cord, Treated: 1 fold
400 Gene Array
  genes down-regulated or up-regulated by more than 1.5 fold upon treatment: twenty
[1]; 80 mM phosphate buffer, aqueous buffer, 80 mM phosphate buffer, read-out: solubility of non-lyophilized material
  solubility: ~10 mg/mL (≈ 21.2 mM)
[1]; 80 mM phosphate buffer, pH 6.9, aqueous buffer, lyophilized, 80 mM phosphate buffer, pH 6.9, read-out: solubility following lyophilization
  solubility: ≤ 60 mg/mL
[1]; 80 mM phosphate buffer, pH 7.8, aqueous buffer, 80 mM phosphate buffer, pH 7.8, read-out: actual solubility
  solubility: ≤ 12 mg/mL
[1]; 80 mM phosphate buffer, pH 7.8 vs calculated
  actual solubility higher than expected: about 20 fold
[1]; tert.butanol and water 62.5:32.5 (v/v)
  dissolution in organic cosolvent solution: up to 80 mg/ml
Visceral pain; 0.5 mg/kg compound 18F i.v.
  number of writhing responses: 10
Visceral pain; 0.5 mg/kg i.v.
  reduction of writhing responses as compared to vehicle treated animals: 64%
Visceral pain; 1 mg/kg compound 18F i.v.
  number of writhing responses: 9
Visceral pain; 1 mg/kg i.v.
  inhibition of the number of writhing responses: 71%
Visceral pain; 1 mg/kg i.v. + 1 mg/kg SR141716A
  effect of addition of CB1 antagonist on analgesic activity: only partially reversed
Visceral pain; 1 mg/kg i.v. + 1 mg/kg SR144528
  effect of addition of CB2 antagonist on analgesic activity: significantly reversed
Visceral pain; 2 mg/kg i.v.
  inhibition of writhing responses as compared to vehicle treated group: 94%
  reduction of writhing responses as compared to vehicle treated animals: 98%
Visceral pain; 10 mg/kg p.o. in CREMOPHOR®:Ethanol
  inhibition of writhing responses: 71%
Visceral pain; 10 mg/kg p.o. in phosphate buffer
  inhibition of pain response as compared to untreated animals: 61%
Visceral pain; p.o. in phosphate buffer
  dose from which reduction of writhing responses was significant: 10 mg/kg
Visceral pain; p.o. in phosphate buffer, highest dose tested (5 to 60 mg/kg)
  inhibition of writhing responses: 93%
F4/80
  Fold gene expression F4/80, Brain, Treated: 1.5 fold
  Fold gene expression F4/80, Spinal Cord, Treated: 5.5 fold
